Reference: BindingDB's records for doi:10.1021/acs.jmedchem.0c00830 (University of East Anglia, 2020)

Target: Histone deacetylase 3/Nuclear receptor corepressor 2 (HDAC3/NCoR2) (Homo sapiens, UniProt O15379+Q9Y618)
Test: Inhibition of human C-terminal His-tagged HDAC3 (1 to 428 residues)/human N-terminal GST-tagged NcoR2 (395 to 489 residues) expressed in sf9 cells using p53 (379 to 382 residues) (Arg-His-Lys(Ac)-Lys(Ac)) as substrate by fluorimetric assay

Histone deacetylase 3/Nuclear receptor corepressor 2 (HDAC3/NCoR2), sequence (O15379 whole entry, the tested form may be a part): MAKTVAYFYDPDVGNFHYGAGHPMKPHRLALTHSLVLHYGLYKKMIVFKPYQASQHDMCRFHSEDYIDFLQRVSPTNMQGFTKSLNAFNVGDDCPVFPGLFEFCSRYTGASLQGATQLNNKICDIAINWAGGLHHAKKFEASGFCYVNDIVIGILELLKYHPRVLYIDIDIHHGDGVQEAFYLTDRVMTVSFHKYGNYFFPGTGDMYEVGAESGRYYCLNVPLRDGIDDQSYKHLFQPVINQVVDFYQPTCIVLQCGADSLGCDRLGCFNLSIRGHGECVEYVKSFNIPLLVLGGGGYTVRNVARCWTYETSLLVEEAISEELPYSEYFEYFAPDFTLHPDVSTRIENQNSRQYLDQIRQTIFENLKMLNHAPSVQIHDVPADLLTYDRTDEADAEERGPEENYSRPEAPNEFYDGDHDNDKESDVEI
Histone deacetylase 3/Nuclear receptor corepressor 2 (HDAC3/NCoR2), sequence (Q9Y618 whole entry, the tested form may be a part): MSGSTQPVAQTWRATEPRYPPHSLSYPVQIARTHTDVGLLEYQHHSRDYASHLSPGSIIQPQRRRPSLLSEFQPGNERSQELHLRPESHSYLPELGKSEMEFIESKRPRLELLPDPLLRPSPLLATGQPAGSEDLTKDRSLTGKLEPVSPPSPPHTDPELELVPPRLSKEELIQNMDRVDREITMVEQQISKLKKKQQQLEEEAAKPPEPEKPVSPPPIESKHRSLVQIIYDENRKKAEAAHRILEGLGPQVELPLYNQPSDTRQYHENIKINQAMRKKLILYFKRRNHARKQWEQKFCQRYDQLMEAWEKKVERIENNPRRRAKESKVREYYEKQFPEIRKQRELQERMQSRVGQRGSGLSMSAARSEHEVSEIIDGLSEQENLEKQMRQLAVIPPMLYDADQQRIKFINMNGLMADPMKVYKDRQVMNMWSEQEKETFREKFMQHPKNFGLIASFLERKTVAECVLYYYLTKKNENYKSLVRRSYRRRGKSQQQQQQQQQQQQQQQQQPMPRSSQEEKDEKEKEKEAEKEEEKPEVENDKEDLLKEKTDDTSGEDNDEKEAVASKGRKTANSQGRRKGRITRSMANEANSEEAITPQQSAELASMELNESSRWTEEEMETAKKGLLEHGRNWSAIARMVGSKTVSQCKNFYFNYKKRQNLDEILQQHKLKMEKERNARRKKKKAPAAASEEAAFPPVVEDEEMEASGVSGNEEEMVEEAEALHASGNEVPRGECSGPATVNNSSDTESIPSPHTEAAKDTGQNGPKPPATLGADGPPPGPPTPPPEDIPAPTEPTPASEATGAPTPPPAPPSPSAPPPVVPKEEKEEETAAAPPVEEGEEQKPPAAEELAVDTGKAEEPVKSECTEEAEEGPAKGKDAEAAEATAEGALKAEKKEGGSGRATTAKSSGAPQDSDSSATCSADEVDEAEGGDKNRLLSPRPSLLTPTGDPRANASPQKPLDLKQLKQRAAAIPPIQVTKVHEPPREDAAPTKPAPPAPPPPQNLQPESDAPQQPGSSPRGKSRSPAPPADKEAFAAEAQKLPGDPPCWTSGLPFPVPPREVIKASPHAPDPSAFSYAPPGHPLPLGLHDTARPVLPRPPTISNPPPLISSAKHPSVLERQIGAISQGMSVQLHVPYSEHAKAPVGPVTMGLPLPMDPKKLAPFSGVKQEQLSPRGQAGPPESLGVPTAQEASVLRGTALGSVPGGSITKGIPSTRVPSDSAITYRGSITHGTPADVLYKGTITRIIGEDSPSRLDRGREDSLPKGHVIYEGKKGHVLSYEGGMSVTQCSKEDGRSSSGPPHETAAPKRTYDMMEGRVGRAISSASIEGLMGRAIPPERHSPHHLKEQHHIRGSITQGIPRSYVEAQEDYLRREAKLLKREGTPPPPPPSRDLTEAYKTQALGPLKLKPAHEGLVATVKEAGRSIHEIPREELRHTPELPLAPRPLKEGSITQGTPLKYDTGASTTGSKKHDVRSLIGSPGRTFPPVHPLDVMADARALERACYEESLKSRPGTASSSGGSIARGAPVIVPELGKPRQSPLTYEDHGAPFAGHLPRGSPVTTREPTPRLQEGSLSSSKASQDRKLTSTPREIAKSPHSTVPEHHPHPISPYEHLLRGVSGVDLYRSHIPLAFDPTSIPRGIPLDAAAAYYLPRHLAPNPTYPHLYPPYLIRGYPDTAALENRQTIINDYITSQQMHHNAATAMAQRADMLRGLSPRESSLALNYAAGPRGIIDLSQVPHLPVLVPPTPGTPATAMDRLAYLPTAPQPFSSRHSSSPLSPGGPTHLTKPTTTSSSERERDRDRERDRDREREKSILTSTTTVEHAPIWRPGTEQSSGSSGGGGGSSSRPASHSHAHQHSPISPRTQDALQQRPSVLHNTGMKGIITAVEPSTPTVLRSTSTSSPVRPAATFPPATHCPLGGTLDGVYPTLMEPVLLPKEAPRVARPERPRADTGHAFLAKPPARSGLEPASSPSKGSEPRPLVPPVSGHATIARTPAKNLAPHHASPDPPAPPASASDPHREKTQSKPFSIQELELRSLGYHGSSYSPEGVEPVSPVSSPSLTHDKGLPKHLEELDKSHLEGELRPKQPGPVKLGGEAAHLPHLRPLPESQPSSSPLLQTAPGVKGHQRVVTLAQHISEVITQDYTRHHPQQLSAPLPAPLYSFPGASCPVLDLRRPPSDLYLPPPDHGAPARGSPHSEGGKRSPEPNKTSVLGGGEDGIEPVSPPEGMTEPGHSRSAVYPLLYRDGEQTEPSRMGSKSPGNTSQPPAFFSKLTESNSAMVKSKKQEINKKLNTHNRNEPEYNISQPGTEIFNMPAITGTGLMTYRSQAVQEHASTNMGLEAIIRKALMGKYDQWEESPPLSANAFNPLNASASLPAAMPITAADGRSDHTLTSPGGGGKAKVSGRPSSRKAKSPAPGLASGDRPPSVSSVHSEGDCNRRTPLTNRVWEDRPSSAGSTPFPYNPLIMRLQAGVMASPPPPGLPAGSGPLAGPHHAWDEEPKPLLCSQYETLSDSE

`CCCCNNC(=O)c1ccc(Br)cc1` [UF010] gave an IC50 of 60 nM.
